Data as given in patent US20130288895A1, “METHODS AND COMPOSITIONS FOR WEED CONTROL” (priority 2011, published 2013).

B1: CP4-12: dsRNA trigger, 82-462 of SEQ ID NO:1 (CP4 EPSPS), a 381 polynucleotide (nucleic acid, listed as Agrobacterium tumefaciens)
DNA: ATCTCCCACCGGTCCTTCATGTTCGGCGGTCTCGCGAGCGGTGAAACGCGCATCACCGGCCTTCTGGAAGGCGAGGACGTCATCAATACGGGCAAGGCCATGCAGGCCATGGGCGCCAGGATCCGTAAGGAAGGCGACACCTGGATCATCGATGGCGTCGGCAATGGCGGCCTCCTGGCGCCTGAGGCGCCGCTCGATTTCGGCAATGCCGCCACGGGCTGCCGCCTGACCATGGGCCTCGTCGGGGTCTACGATTTCGACAGCACCTTCATCGGCGACGCCTCGCTCACAAAGCGCCCGATGGGCCGCGTGTTGAACCCGCTGCGCGAAATGGGCGTGCAGGTGAAATCGGAAGACGGTGACCGTCTTCCCGTTACCTTG
modifications: dsRNA form
B2: CP4-34: dsRNA trigger, 594-1043 of SEQ ID NO:1 (CP4 EPSPS), a 450 polynucleotide (nucleic acid, listed as Agrobacterium tumefaciens)
DNA: CGATCATACGGAAAAGATGCTGCAGGGCTTTGGCGCCAACCTTACCGTCGAGACGGATGCGGACGGCGTGCGCACCATCCGCCTGGAAGGCCGCGGCAAGCTCACCGGCCAAGTCATCGACGTGCCGGGCGACCCGTCCTCGACGGCCTTCCCGCTGGTTGCGGCCCTGCTTGTTCCGGGCTCCGACGTCACCATCCTCAACGTGCTGATGAACCCCACCCGCACCGGCCTCATCCTGACGCTGCAGGAAATGGGCGCCGACATCGAAGTCATCAACCCGCGCCTTGCCGGCGGCGAAGACGTGGCGGACCTGCGCGTTCGCTCCTCCACGCTGAAGGGCGTCACGGTGCCGGAAGACCGCGCGCCTTCGATGATCGACGAATATCCGATTCTCGCTGTCGCCGCCGCCTTCGCGGAAGGGGCGACCGTGATGAACGGTCTGGAAGAACT
modifications: dsRNA form

Tests used:
[1] = test system: A. palmeri (R-22); test: Greenhouse test: 2,4-D, glyphosate and trigger polynucleotides; type: in vivo; settings: RU Wmax 1.5 lb/A where included, 14 days after treatment
[2] = test system: Amaranthus palmeri plants (glyphosate-resistant Palmer amaranth, “R-22”); test: Topical trigger oligonucleotide bioassay with glyphosate on Amaranthus palmeri; type: in vivo; set-up: key: relative measure of activity, the tested oligonucleotide was either active, less active, or inactive in the bioassay; relative measure of activity, the tested oligonucleotide was either active, less active, or inactive in the bioassay; relative measure of activity, the tested oligonucleotide was either active, less active, or inactive in the bioassay
[3] = test system: Corn plants transformed with the CP4 EPSPS gene; test: CP4 EPSPS dsRNA triggers plus RoundUp Ultra on transgenic glyphosate tolerant corn; settings: trigger 210, 630, 1890 pmol; RoundUp Ultra 1.5 a.e. lb/acre two-three days later; FIG. 2
Experimental: Corn and cotton plants that were transformed with the CP4 EPSPS gene and are resistant to glyphosate were planted in pots in a greenhouse along with negative isolines for each and grown to the first true leaf emergence stage then treated with a trigger solution containing 0.5% Silwet L77, 2% ammonium sulfate, 20 mM Na Phoshpate (pH 6.8) at different rates of trigger amount, 0 picomoles (pmol), 210 pmol, 630 pmol and 1890 pmol. For each replication (8-10 plants), two fully expanded cotyledons were treated by pipette with 50 microliters of trigger solution each, then sprayed two-three days later with 1.5 a.e.lb/acre) of RoundUp™ Ultra (glyphosate, Monsanto, St Louis, Mo.). The cotton and corn plants were scored for stunting and injury 7-16 days after spray treatment.

[4] = 5.2 triggers to A. palmeri EPSPS coding sequence, topical application with Silwet L-77, glyphosate, relative measure of activity
[5] = AS83 triggers to EPSPS promoter of glyphosate resistant A. palmeri, 3′/5′ deletions, mismatch mutations, relative measure of activity
[6] = AS83 made as ssDNA, dsRNA, dsDNA, making Palmer R-22 plant sensitive to glyphosate

Molecule	Activity [2, 4]	Activity [2, 5]	further results
CNC.O=C(O)COc1ccc(Cl)cc1Cl [2,4-D, 2,4D amine (dimethylamine salt)]			% Control (mean) ([1]; 2,4-D 0.0625 lb/A): 60%; % Control (mean) ([1]; 2,4-D 0.125 lb/A): 80.8%
AATGCCAGATGTTGCTATGAC (AATGCCAGATGTTGCTATGAC; antisense; DNA, backbone and methylation of C not given here; 5.2-DNA-wt is double-stranded DNA) [Oligo 5.2-ssDNA-S, ssDNA 21-mer, sense]	less active		
ATA GCA ACA TCT GGC ATT [5.2-RNA-5′-18]	inactive		
C ATA GCA ACA TCT GGC ATT [5.2-RNA-5′-19]	less active		
CTC TTT GTT TTT CTT CT (CTCTTTGTTTTTCTTCT; DNA, backbone and methylation of C not given here) [AS83-DNA-17-3′D, ssDNA 17-mer]		inactive	
CTC TTT GTT TTT CTT CTG (CTCTTTGTTTTTCTTCTG; DNA, backbone and methylation of C not given here) [AS83-DNA-18-3′D, ssDNA 18-mer]		inactive	
CTC TTT GTT TTT CTT CTG C (CTCTTTGTTTTTCTTCTGC; DNA, backbone and methylation of C not given here) [AS83-DNA-19-3′D, ssDNA 19-mer]		inactive	
CTCTTTGTTTTTCTTCTGCC (CTCTTTGTTTTTCTTCTGCC; DNA, backbone and methylation of C not given here) [AS83-DNA-20-3′D, ssDNA 20-mer]		active	
CTCTTTGTTTTTCTTCTGCCA (CTCTTTGTTTTTCTTCTGCCA; chemistry not given here) [AS83-DNA-21-3′D, ssDNA 21-mer]		active	
CTCTTTGTTTTTCTTCTGCCAA (CTCTTTGTTTTTCTTCTGCCAA; chemistry not given here) [AS83-DNA-22-3′D, ssDNA 22-mer]		active	
CTCTTTGTTTTTCTTCTGCCAAT (CTCTTTGTTTTTCTTCTGCCAAT; chemistry not given here) [AS83-DNA-23-3′D, ssDNA 23-mer]		active	
CTCTTTGTTTTTCTTCTGCCAATT (CTCTTTGTTTTTCTTCTGCCAATT; chemistry not given here) [AS83-DNA-24-3′D, ssDNA 24-mer]		active	
CTCTTTGTTTTTCTTCTGCCAATTT (CTCTTTGTTTTTCTTCTGCCAATTT; chemistry not fully specified) [AS83-DNA-blunt, dsDNA 25-mer]			Activity [2, 6]: active
CTCTTTGTTTTTCTTCTGCCAATTT (antisense CTCTTTGTTTTTCTTCTGCCAATTT; DNA, backbone and methylation of C not given here; listed as Amaranthus palmeri) [AS83-DNA-25-wt]		active	
CTCTTTGTTTTTCTTCTGCCAATTT-3′InvdT [AS83-DNA-3′InvdT]		inactive	
CTCTTTGTTTTTCTTCTGCCAATTT-3′ddC [AS83-DNA-3′ddC]		inactive	
CTTTGTTTTTCTTCTGCCAATTT (CTTTGTTTTTCTTCTGCCAATTT; chemistry not given here) [AS83-DNA-23-5′D, ssDNA 23-mer]		active	
CUCUUUGUUUUUCUUCUGCCAAUUU (CUCUUUGUUUUUCUUCUGCCAAUUU; RNA, backbone not given here; further chemistry not fully specified; listed as Amaranthus palmeri) [AS83-RNA-wt-]			Activity [2, 6]: active

Molecule	Activity [2, 4]	Activity [2, 5]	further results
GTCATAGCAACATCTGGCATT [5.2-DNA-wt] (GTCATAGCAACATCTGGCATT; DNA, backbone and methylation of C not given here; 5.2-DNA-wt is double-stranded DNA) [Oligo 5.2-DNA-wt, dsDNA 21-mer]	active		
GTCATAGCAACATCTGGCATT [5.2-asDNA/sRNA] (GTCATAGCAACATCTGGCATT; chemistry not fully specified) [DNA/RNA hybrid 21-mer]	inactive		
GTCATAGCAACATCTGGCATT [5.2-sDNA/asRNA] (GTCATAGCAACATCTGGCATT; RNA, backbone and T or U not given here; hybrid: sense DNA strand with antisense RNA strand) [DNA/RNA hybrid 21-mer]	inactive		
GTCATAGCAACATCTGGCATT [5.2-ssDNA-AS] (GTCATAGCAACATCTGGCATT; antisense; DNA, backbone and methylation of C not given here; 5.2-DNA-wt is double-stranded DNA) [Oligo 5.2-ssDNA-AS, ssDNA 21-mer, antisense]	less active		
GTCATAGCAACATCTGGCATT [Oligo 5.2-RNA-wt]	active		
GTCATAGCAACATCTGGCATT-3′IdT [5.2-RNA-3′IdT]	inactive		
GTCATAGCAACATCTGGCATT-3′ddC [5.2-RNA-3′ddC]	inactive		
GTC Aat GCA ACA TCT GGC ATT [Oligo 5.2-RNA-M5]	active		
TC ATA GCA ACA TCT GGC ATT [5.2-RNA-5′-20]	active		
TCTTTGTTTTTCTTCTGCCAATTT (TCTTTGTTTTTCTTCTGCCAATTT; chemistry not given here) [AS83-DNA-24-5′D, ssDNA 24-mer]		active	
TTG TTT TTC TTC TGC CA (TTGTTTTTCTTCTGCCA; DNA, backbone and methylation of C not given here) [AS83-DNA-17-5′D, ssDNA 17-mer]		inactive	
TTG TTT TTC TTC TGC CAA (TTGTTTTTCTTCTGCCAA; DNA, backbone and methylation of C not given here) [AS83-DNA-18-5′D, ssDNA 18-mer]		inactive	
TTG TTT TTC TTC TGC CAA T (TTGTTTTTCTTCTGCCAAT; DNA, backbone and methylation of C not given here) [AS83-DNA-19-5′D, ssDNA 19-mer]		less active	
TTGTTTTTCTTCTGCCAATT (TTGTTTTTCTTCTGCCAATT; chemistry not given here) [AS83-DNA-20-5′D, ssDNA 20-mer]		active	
TTGTTTTTCTTCTGCCAATTT (TTGTTTTTCTTCTGCCAATTT; chemistry not given here) [AS83-DNA-21-5′D, ssDNA 21-mer]		active	
TTTGTTTTTCTTCTGCCAATTT (TTTGTTTTTCTTCTGCCAATTT; chemistry not given here) [AS83-DNA-22-5′D, ssDNA 22-mer]		active	
B1			glyphosate injury of corn plants [3]: dead or damaged terminal leaves
B2			glyphosate injury of corn plants [3]: dead or damaged terminal leaves
